Measured values as given in ChEMBL document CHEMBL4340553 (Bioorg Med Chem, 2019).
pIC50: −log10 of the molar value.

Tests used:
MDA-MB-231 = assay: Cytotoxicity in human MDA-MB-231 cells assessed as reduction in cell viability incubated for 72 hrs by MTT assay; conditions: MDA-MB-231, 72 h
MKN-45 = assay: Cytotoxicity in human MKN45 cells assessed as reduction in cell viability incubated for 72 hrs by MTT assay; conditions: MKN-45, 72 h
NCI-H460 = assay: Cytotoxicity in human NCI-H460 cells assessed as reduction in cell viability incubated for 72 hrs by MTT assay; conditions: NCI-H460, 72 h
HT-29 = assay: Cytotoxicity in human HT-29 cells assessed as reduction in cell viability incubated for 72 hrs by MTT assay; conditions: HT-29, 72 h
[1] = biological target: T1, Receptor-type tyrosine-protein kinase FLT3 (Homo sapiens, UniProt P36888); assay: Inhibition of FLT3 (unknown origin) using poly (Glu, Tyr) 4:1 substrate incubated for 30 mins by HTRF assay
T1 sequence (P36888 whole entry): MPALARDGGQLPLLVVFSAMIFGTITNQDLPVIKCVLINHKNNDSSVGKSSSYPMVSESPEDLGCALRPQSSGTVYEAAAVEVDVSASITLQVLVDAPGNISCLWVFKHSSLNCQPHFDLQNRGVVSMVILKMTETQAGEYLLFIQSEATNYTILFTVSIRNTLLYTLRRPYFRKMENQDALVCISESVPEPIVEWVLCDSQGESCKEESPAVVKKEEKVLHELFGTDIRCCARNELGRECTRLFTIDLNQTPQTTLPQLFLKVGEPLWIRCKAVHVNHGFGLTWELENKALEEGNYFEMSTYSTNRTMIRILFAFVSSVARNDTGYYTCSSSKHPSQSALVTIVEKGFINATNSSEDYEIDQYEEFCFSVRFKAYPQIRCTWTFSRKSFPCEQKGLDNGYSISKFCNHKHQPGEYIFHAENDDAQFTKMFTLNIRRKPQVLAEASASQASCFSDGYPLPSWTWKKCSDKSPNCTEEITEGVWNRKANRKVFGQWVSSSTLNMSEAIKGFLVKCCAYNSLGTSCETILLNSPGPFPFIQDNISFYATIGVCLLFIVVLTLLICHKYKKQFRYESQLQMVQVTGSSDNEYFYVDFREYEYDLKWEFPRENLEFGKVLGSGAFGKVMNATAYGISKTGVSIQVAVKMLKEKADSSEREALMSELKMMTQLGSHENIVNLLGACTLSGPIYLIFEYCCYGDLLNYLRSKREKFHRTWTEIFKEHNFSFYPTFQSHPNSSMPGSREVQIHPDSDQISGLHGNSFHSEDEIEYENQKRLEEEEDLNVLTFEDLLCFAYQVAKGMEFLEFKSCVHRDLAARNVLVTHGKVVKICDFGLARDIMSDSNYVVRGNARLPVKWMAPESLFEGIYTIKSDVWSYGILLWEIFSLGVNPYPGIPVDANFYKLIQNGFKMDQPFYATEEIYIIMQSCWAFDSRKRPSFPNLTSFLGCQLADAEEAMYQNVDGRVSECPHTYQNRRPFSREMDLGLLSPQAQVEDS

[2] = biological target: Macrophage-stimulating protein receptor (Homo sapiens, UniProt Q04912); assay: Inhibition of RON (unknown origin) using poly (Glu, Tyr) 4:1 substrate incubated for 30 mins by HTRF assay
[3] = biological target: Epidermal growth factor receptor (Homo sapiens, UniProt P00533); assay: Inhibition of EGFR (unknown origin) using poly (Glu, Tyr) 4:1 substrate incubated for 30 mins by HTRF assay
[4] = biological target: ALK tyrosine kinase receptor (Homo sapiens, UniProt Q9UM73); assay: Inhibition of ALK (unknown origin) using poly (Glu, Tyr) 4:1 substrate incubated for 30 mins by HTRF assay
[5] = biological target: Vascular endothelial growth factor receptor 2 (Homo sapiens, UniProt P35968); assay: Inhibition of KDR (unknown origin) using poly (Glu, Tyr) 4:1 substrate incubated for 30 mins by HTRF assay
[6] = biological target: Mast/stem cell growth factor receptor Kit (Homo sapiens, UniProt P10721); assay: Inhibition of c-Kit (unknown origin) using poly (Glu, Tyr) 4:1 substrate incubated for 30 mins by HTRF assay
[7] = biological target: Hepatocyte growth factor receptor (Homo sapiens, UniProt P08581); assay: Inhibition of c-Met (unknown origin) using poly (Glu, Tyr) 4:1 substrate incubated for 30 mins by HTRF assay
[8] = biological target: Vascular endothelial growth factor receptor 1 (Homo sapiens, UniProt P17948); assay: Inhibition of FLT1 (unknown origin) using poly (Glu, Tyr) 4:1 substrate incubated for 30 mins by HTRF assay
[9] = Inhibition of VEGFR (unknown origin) using poly (Glu, Tyr) 4:1 substrate incubated for 30 mins by HTRF assay; design: species or system Homo sapiens
[10] = biological target: Platelet-derived growth factor receptor alpha (Homo sapiens, UniProt P16234); assay: Inhibition of PDGFRalpha (unknown origin) using poly (Glu, Tyr) 4:1 substrate incubated for 30 mins by HTRF assay
[11] = biological target: Platelet-derived growth factor receptor beta (Homo sapiens, UniProt P09619); assay: Inhibition of PDGFRbeta (unknown origin) using poly (Glu, Tyr) 4:1 substrate incubated for 30 mins by HTRF assay
Chain of Platelet-derived growth factor receptor beta (P09619 whole entry): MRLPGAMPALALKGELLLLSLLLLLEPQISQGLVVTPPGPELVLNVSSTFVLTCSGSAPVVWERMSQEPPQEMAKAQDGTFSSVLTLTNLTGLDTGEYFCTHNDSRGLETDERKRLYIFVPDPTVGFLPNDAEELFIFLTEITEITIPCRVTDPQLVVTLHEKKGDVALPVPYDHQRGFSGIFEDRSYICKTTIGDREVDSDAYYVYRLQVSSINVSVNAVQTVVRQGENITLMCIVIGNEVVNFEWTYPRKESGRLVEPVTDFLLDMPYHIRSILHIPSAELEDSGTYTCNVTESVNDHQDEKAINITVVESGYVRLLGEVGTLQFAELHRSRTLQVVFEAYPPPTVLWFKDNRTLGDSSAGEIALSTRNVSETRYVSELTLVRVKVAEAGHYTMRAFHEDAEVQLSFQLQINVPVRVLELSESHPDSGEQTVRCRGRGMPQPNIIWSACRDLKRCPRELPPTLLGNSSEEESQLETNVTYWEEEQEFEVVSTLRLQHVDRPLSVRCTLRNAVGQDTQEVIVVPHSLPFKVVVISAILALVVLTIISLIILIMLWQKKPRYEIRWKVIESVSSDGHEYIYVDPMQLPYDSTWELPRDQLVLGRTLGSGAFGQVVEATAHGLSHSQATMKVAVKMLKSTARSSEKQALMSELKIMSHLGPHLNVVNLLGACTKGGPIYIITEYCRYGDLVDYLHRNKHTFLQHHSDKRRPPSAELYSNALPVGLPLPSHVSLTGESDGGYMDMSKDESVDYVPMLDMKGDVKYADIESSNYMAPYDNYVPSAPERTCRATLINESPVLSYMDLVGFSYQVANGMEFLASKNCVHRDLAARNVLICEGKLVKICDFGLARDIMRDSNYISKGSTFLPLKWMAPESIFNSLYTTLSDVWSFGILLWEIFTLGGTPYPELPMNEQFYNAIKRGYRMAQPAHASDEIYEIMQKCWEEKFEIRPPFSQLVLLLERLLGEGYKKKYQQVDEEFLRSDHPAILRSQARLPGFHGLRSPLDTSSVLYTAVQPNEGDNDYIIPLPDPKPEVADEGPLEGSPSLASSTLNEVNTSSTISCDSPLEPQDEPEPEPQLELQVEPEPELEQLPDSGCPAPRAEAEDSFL

Chain of Epidermal growth factor receptor (P00533 whole entry): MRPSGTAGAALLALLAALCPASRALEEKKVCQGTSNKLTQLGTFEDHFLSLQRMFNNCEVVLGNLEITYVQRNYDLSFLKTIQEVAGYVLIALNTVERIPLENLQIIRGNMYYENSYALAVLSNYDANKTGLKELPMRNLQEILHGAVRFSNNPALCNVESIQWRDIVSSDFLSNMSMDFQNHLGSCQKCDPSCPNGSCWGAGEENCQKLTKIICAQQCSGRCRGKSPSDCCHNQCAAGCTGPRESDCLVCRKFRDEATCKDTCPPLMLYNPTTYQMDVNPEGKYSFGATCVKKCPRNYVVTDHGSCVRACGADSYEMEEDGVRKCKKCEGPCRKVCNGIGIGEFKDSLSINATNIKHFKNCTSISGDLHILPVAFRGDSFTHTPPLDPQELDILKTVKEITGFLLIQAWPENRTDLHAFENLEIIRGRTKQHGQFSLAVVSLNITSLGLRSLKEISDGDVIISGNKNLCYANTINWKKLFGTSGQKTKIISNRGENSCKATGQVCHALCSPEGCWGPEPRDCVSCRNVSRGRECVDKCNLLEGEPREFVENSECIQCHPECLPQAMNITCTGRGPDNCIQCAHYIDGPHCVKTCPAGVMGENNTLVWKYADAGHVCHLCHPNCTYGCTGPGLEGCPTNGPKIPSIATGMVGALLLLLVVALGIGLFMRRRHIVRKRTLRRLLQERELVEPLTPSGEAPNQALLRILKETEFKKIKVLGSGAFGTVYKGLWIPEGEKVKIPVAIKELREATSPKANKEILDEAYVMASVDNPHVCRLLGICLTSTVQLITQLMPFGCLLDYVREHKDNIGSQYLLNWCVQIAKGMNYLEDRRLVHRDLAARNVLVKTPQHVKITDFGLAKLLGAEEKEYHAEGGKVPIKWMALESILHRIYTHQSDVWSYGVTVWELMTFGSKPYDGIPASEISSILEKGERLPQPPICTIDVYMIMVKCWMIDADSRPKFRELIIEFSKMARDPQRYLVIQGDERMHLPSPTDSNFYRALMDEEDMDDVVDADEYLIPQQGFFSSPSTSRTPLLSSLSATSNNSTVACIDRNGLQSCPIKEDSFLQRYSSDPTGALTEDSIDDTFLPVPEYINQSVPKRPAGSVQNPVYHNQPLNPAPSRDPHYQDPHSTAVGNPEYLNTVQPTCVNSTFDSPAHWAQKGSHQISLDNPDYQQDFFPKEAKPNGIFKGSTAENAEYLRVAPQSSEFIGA
Chain of Platelet-derived growth factor receptor alpha (P16234 whole entry): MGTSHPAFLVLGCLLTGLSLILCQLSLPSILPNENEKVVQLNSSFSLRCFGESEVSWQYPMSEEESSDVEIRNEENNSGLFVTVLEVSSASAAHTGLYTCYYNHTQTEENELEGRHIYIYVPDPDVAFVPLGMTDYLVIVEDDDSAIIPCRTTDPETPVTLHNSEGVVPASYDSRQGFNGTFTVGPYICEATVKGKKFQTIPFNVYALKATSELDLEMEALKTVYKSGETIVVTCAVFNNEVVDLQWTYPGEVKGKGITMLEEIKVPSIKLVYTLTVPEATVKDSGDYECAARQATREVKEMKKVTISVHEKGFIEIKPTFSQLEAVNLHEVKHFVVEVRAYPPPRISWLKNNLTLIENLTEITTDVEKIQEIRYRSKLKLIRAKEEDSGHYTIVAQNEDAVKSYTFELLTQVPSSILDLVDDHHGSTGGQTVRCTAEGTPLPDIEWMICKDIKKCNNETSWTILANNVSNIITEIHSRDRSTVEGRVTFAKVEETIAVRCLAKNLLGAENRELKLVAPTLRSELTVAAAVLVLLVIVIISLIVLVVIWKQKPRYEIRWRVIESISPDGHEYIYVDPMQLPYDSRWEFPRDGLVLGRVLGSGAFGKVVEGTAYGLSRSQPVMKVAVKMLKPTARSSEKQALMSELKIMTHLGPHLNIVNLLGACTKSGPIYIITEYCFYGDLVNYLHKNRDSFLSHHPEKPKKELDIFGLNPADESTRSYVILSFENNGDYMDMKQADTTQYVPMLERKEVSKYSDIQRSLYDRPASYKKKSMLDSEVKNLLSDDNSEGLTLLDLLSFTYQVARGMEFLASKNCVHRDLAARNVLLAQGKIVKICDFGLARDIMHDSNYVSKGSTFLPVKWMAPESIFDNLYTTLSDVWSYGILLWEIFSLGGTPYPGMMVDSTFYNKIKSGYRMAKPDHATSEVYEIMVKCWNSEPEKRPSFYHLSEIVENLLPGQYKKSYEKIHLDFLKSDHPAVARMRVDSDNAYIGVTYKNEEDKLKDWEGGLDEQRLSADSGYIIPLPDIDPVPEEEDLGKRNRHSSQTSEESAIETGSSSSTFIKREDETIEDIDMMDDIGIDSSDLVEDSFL
Chain of Mast/stem cell growth factor receptor Kit (P10721 whole entry): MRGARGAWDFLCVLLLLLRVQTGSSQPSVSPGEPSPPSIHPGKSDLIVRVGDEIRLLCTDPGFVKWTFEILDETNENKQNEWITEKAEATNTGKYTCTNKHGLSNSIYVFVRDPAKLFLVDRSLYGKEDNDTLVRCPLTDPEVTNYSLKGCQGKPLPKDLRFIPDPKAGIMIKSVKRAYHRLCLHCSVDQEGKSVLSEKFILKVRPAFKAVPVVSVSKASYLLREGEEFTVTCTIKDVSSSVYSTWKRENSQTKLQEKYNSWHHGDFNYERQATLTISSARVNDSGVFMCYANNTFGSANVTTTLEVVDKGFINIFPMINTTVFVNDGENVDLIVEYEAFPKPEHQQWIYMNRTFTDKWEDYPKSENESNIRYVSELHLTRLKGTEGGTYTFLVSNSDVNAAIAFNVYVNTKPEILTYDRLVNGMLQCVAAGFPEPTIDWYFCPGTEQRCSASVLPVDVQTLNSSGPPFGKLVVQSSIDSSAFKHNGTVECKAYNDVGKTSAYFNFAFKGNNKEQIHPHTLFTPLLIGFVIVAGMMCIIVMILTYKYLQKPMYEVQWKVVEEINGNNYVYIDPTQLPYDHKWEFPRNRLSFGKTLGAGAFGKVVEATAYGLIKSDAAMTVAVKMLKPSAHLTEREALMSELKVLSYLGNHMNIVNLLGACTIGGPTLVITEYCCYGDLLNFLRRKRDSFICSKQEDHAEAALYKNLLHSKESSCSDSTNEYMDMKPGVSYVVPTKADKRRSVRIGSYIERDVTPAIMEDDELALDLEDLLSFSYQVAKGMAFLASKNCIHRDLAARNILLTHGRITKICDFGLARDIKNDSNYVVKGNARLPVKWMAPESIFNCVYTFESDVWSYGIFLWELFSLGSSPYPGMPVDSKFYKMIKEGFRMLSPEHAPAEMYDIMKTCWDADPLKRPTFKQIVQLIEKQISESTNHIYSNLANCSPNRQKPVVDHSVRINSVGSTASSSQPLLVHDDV

Compound	pIC50 (MDA-MB-231)	pIC50 (MKN-45)	pIC50 (NCI-H460)	pIC50 (HT-29)	also measured
COc1cc2c(Oc3ccc(NC(=O)NS(=O)(=O)Cc4ccc(C)cc4)cc3F)ccnc2cc1OCCCN1CCCCC1	5.60	5.95	6.04	5.66	
COc1cc2nccc(Oc3ccc(NC(=O)NS(=O)(=O)Cc4ccccc4)cc3F)c2cc1OC	5.61	5.84	5.81	5.52	
COc1cc2nccc(Oc3ccc(NC(=O)NS(=O)(=O)Cc4ccc(Cl)cc4)cc3F)c2cc1OC	5.50	5.85	5.84	5.54	
CCCCOc1cc2nccc(Oc3ccc(NC(=O)NS(=O)(=O)Cc4ccc(F)cc4)cc3F)c2cc1OC	5.64	5.88	5.84	5.54	
COc1cc2nccc(Oc3ccc(NC(=O)NS(=O)(=O)Cc4ccccc4C)cc3F)c2cc1OC	5.25	5.47	5.52	5.21	
COc1cc2nccc(Oc3ccc(NC(=O)NS(=O)(=O)Cc4ccc(C(F)(F)F)cc4)cc3F)c2cc1OC	5.02	4.99	4.91	5.09	
COc1cc2nccc(Oc3ccc(NC(=O)NS(=O)(=O)Cc4ccc(C)cc4)cc3F)c2cc1OC	5.12	5.27	5.32	5.15	
COc1cc2c(Oc3ccc(NC(=O)NS(=O)(=O)Cc4ccc(C)cc4)cc3F)ccnc2cc1OCCCN1CCOCC1	5.41	5.78	5.81	5.42	
COc1cc2c(Oc3ccc(NC(=O)NS(=O)(=O)Cc4ccccc4)cc3F)ccnc2cc1OCCCN1CCCC1	5.92	6.21	6.37	6.03	
COc1cc2nccc(Oc3ccc(NC(=O)NS(=O)(=O)Cc4cccc(C)c4)cc3F)c2cc1OC	5.18	5.34	5.41	5.22	
CCCCOc1cc2nccc(Oc3ccc(NC(=O)NS(=O)(=O)Cc4ccccc4)cc3F)c2cc1OC	5.62	5.76	5.74	5.51	
COc1cc2c(Oc3ccc(NC(=O)NS(=O)(=O)Cc4ccc(F)cc4)cc3F)ccnc2cc1OCCCN1CCCC1	6.31	7.19	7.26	6.80	pIC50 [1]: 6.40; pIC50 [2]: 6.43; pIC50 [3]: < 5.00; pIC50 [4]: < 5.00; pIC50 [5]: 7.02; pIC50 [6]: 6.42; pIC50 [7]: 8.70; pIC50 [8]: 6.38; pIC50 [9]: 6.16; pIC50 [10]: 6.62; pIC50 [11]: 6.45
CCCCOc1cc2nccc(Oc3ccc(NC(=O)NS(=O)(=O)Cc4ccc(C)cc4)cc3F)c2cc1OC	5.05	5.19	5.23	5.03	
COc1cc2nccc(Oc3ccc(NC(=O)NS(=O)(=O)Cc4cccc(F)c4)cc3F)c2cc1OC	5.45	5.79	5.75	5.51	
COc1cc2c(Oc3ccc(NC(=O)NS(=O)(=O)Cc4ccc(F)cc4)cc3F)ccnc2cc1OCCCN1CCOCC1	6.11	6.92	6.80	6.47	
COc1cc2nccc(Oc3ccc(NC(=O)NS(=O)(=O)Cc4ccc(Cl)cc4Cl)cc3F)c2cc1OC	5.34	5.65	5.45	5.53	
COc1cc2nccc(Oc3ccc(NC(=O)NS(=O)(=O)Cc4ccc(Br)cc4)cc3F)c2cc1OC	5.65	5.85	5.78	5.51	
COc1cc2nccc(Oc3ccc(NC(=O)NS(=O)(=O)Cc4ccccc4)cc3)c2cc1OC	5.42	5.68	5.59	5.36	
COc1cc2nccc(Oc3ccc(NC(=O)NS(=O)(=O)Cc4ccc(F)cc4)cc3)c2cc1OC	5.58	5.88	5.70	5.49	
COc1cc2c(Oc3ccc(NC(=O)NS(=O)(=O)Cc4ccccc4)cc3F)ccnc2cc1OCCCN1CCOCC1	5.97	6.48	6.22	5.89	
COc1cc2c(Oc3ccc(NC(=O)NS(=O)(=O)Cc4ccc(F)cc4)cc3F)ccnc2cc1OCCCN1CCCCC1	6.22	6.64	6.82	6.49	
COc1cc2c(Oc3ccc(NC(=O)NS(=O)(=O)Cc4ccccc4)cc3F)ccnc2cc1OCCCN1CCCCC1	5.71	6.19	6.13	5.91	
COc1cc2nccc(Oc3ccc(NC(=O)NS(=O)(=O)Cc4ccccc4F)cc3F)c2cc1OC	5.53	5.69	5.73	5.51	
COc1cc2nccc(Oc3ccc(NC(=O)NS(=O)(=O)Cc4ccc(F)cc4)cc3F)c2cc1OC	5.69	6.02	5.98	5.57	
COc1cc2c(Oc3ccc(NC(=O)C4(C(=O)Nc5ccc(F)cc5)CC4)cc3F)ccnc2cc1OCCCN1CCOCC1 [FORETINIB]					pIC50 [9]: 8.30
